# Assay results: patent US20180282323A1, “Mesoionic imidazole derivatives as insecticides” (BAYER CROPSCIENCE AKTIENGESELLSCHAFT, priority 2015, published 2018)
# Read-outs that look alike come from different tables or passages of the source.
# What was measured:
# Myzus persicae = Myzus persicae oral test; type: in vivo; conditions: application rate 20 ppm, oral uptake through parafilm, after 5 days
# Description: Myzus persicae—Oral Test Solvent: 100 parts by weight of acetone
# To produce an appropriate active ingredient formulation, 1 part by weight of active ingredient is dissolved with the stated parts by weight of solvent and made up with water until the desired concentration is attained.
# 50 μl of the active ingredient formulation are transferred into microtitre plates and made up to a final volume of 200 μl with 150 μl of IPL41 insect medium (33%+15% sugar). Subsequently, the plates are sealed with parafilm, which a mixed population of green peach aphids (Myzus persicae) within a second microtitre plate is able to puncture and imbibe the solution through it.
# After 5 days, the efficacy in % is determined. 100% means that all the aphids have been killed; 0% means that no aphids have been killed.
# [1] = log P by HPLC on reversed-phase column (EEC directive 79/831 Annex V.A8); type: physicochemical; conditions: for log p a): HPLC on reversed-phase column; for chromatographic logP: reversed-phase C18 HPLC column
# Description: a) The determination of the [M+H]^+ by LC-MS in the acidic range was effected at pH 2.7, with acetonitrile (containing 0.1% formic acid) and water as eluents; linear gradient from 10% acetonitrile to 95% acetonitrile, instrument: Agilent 1100 LC system, Agilent MSD system, HTS PAL.
# The log P values reported in the tables and preparation examples above were determined in accordance with EEC directive 79/831 Annex V.A8 by HPLC (High Performance Liquid Chromatography) using a reversed-phase column (C18). Temperature 43° C.
# [2] = HPLC on reversed-phase column (footnote a)
Structure (SMILES),efficacy (Myzus persicae) [%],"log p [1, 2]",log p a) [1],other results
COC(=O)c1c([O-])n(Cc2ccc(Cl)nc2)c2ccc(F)c[n+]12 [Example I-1-155],100,1.43,,
CCOCC(=O)c1c([O-])n(Cc2ccc(Cl)nc2)c2c(C)ccc[n+]12 [Example I-1-182],100,1.6,,
CSCC(=O)c1c([O-])n(Cc2cncnc2)c2cccc[n+]12 [Example I-1-077],100,0.79,,
COCC(=O)c1c([O-])n(Cc2cnc(OC)s2)c2ccc(C)c[n+]12 [Example I-1-173],100,1.35,,
O=C(CNCc1ccccc1)c1c([O-])n(Cc2cnc(Cl)s2)c2cccc[n+]12 [Example I-1-053],90,1,,
CC(C)(C)NC(=O)c1c([O-])n(Cc2cnc(Cl)s2)c2cccc[n+]12 [Example I-1-151],100,2.39,,
O=C(Nc1cc(F)ccc1F)c1c([O-])n(Cc2cnc(Cl)s2)c2cccc[n+]12 [Example I-1-306],100,,3.23,
O=C(Cn1ccc(Cl)n1)c1c([O-])n(Cc2cnc(Cl)s2)c2cccc[n+]12 [Example I-1-011],100,2.03,,
CCOCC(=O)c1c([O-])n(Cc2cnc(Cl)c(Cl)c2)c2cccc[n+]12 [Example I-1-192],100,1.93,,
O=C(NC1CC1)c1c([O-])n(Cc2ccc(Cl)nc2)c2ccc(F)c[n+]12 [Example I-1-170],100,1.79,,
COCC(=O)c1c([O-])n(Cc2ccc(Cl)nc2)c2c(F)ccc[n+]12 [Example I-1-205],100,,1.44,
COC(=O)c1c([O-])n(Cc2cnc(Cl)s2)c2cccc(Cl)[n+]12 [Example I-1-121],100,1.32,,
O=C(NC1CC1)c1c([O-])n(Cc2cnc(Cl)c(Cl)c2)c2cccc[n+]12 [Example I-1-201],100,,2.08,
O=C(COc1ccc(F)cc1)c1c([O-])n(Cc2ccc(Cl)nc2)c2cccc[n+]12 [Example I-1-031],100,2.27,,
COCC(=O)c1c([O-])n(Cc2ccc(Cl)nc2)c2cccc(C)[n+]12 [Example I-1-166],100,1.33,,
COCC(=O)c1c([O-])n(Cc2cnc(Cl)s2)c2ccc(Cl)c[n+]12 [Example I-1-118],100,1.69,,
O=C(COc1ccccc1Cl)c1c([O-])n(Cc2cnc(Cl)s2)c2cccc[n+]12 [Example I-1-078],90,2.77,,
O=C(CCl)c1c([O-])n(Cc2cnc(Cl)s2)c2ccc(Cl)c[n+]12 [Example I-1-108],100,2.2,,
O=C(CCl)c1c([O-])n(Cc2ccc(Cl)nc2)c2cccc[n+]12 [Example I-1-001],100,1.62,,
COc1ccc(NC(=O)c2c([O-])n(Cc3cnc(Cl)s3)c3cccc[n+]23)cc1 [Example I-1-236],100,,2.62,
O=C(COCc1ccc(F)cc1)c1c([O-])n(Cc2cnc(Cl)s2)c2cccc[n+]12 [Example I-1-055],100,2.41,,
COc1ccccc1NC(=O)c1c([O-])n(Cc2ccc(Cl)nc2)c2cccc[n+]12 [Example I-1-326],100,,2.55,
"CCN(CC(=O)c1c([O-])n(Cc2cnc(Cl)s2)c2cccc[n+]12)C(C)=O [Example I-1-040, 3-(N-Acetyl-N-ethylglycyl)-1-[(2-chloro-1,3-thiazol-5-yl)methyl]-1H-imidazo[1,2-a]pyridin-4-ium-2-olate]",,,,"pest or weed control at 20 ppm (Myzus persicae; Myzus persicae, 120 h, read-out: efficacy): 100%; chromatographic logP ([1]; pH 2.7, HPLC on reversed-phase column (footnote a), read-out: log p): 1.49; chromatographic logP ([1]; HPLC-MS, reversed-phase C18, 43° C., calibration with alkan-2-ones, read-out: log P): 1.49"
O=C(Cn1ccc(C(F)(F)F)n1)c1c([O-])n(Cc2cnc(Cl)s2)c2cccc[n+]12 [Example I-1-057],90,2.44,,
COC(=O)c1c([O-])n(Cc2cncc(Cl)c2)c2cccc[n+]12 [Example I-1-158],100,1.15,,
COC(=O)c1c([O-])n(Cc2cnc(C)cn2)c2cccc[n+]12 [Example I-1-215],100,,0.80,
O=C(COc1ccc(Cl)nc1)c1c([O-])n(Cc2cnc(Cl)s2)c2cccc[n+]12 [Example I-1-084],100,2.17,,
O=C(Cn1ccnn1)c1c([O-])n(Cc2cnc(Cl)s2)c2cccc[n+]12 [Example I-1-064],100,1.18,,

Structure (SMILES),efficacy (Myzus persicae) [%],"log p [1, 2]",log p a) [1],other results
COC(=O)c1c([O-])n(Cc2ccc(Cl)nc2)c2cccc(C)[n+]12 [Example I-1-157],100,1.27,,
COC(=O)COCC(=O)c1c([O-])n(Cc2cnc(Cl)s2)c2cccc[n+]12 [Example I-1-075],100,1.41,,
N#Cc1ccc[n+]2c(C(=O)CCl)c([O-])n(Cc3ccc(Cl)nc3)c12 [Example I-1-172],90,1.78,,
COc1ccc(NC(=O)c2c([O-])n(C(C)c3ccc(Cl)nc3)c3cccc[n+]23)cc1 (stereo not drawn) [Example I-1-237],90,,2.66,
O=C(Nc1ccccc1Cl)c1c([O-])n(Cc2cnc(Cl)s2)c2cccc[n+]12 [Example I-1-234],100,,3.29,
Cc1ccc2n(Cc3ccc(Cl)nc3)c([O-])c(C(=O)CCl)[n+]2c1 [Example I-1-091],100,1.87,,
O=C(CCl)c1c([O-])n(Cc2cnc(Cl)s2)c2cccc[n+]12 [Example I-1-209],100,,1.24,
COC(=O)c1c([O-])n(C(C)c2ccc(Cl)nc2)c2cccc[n+]12 (stereo not drawn) [Example I-1-198],100,,1.32,
Cc1ccc[n+]2c(C(=O)CCl)c([O-])n(Cc3ccc(Cl)nc3)c12 [Example I-1-159],100,1.78,,
O=C(Nc1ccc(Cl)nc1)c1c([O-])n(Cc2cnc(Cl)s2)c2cccc[n+]12 [Example I-1-146],100,2.55,,
CCNC(=O)c1c([O-])n(Cc2cnc(Cl)cn2)c2cccc[n+]12 [Example I-1-278],100,,1.51,
COCC(=O)c1c([O-])n(Cc2ccc(Cl)nc2)c2c(Cl)ccc[n+]12 [Example I-1-164],90,1.59,,
O=C(Cn1cccn1)c1c([O-])n(Cc2cncnc2)c2cccc[n+]12 [Example I-1-066],90,0.56,,
O=C(COCc1ccccc1)c1c([O-])n(Cc2cncnc2)c2cccc[n+]12 [Example I-1-059],100,1.44,,
N#Cc1ccn(CC(=O)c2c([O-])n(Cc3cnc(Cl)s3)c3cccc[n+]23)n1 [Example I-1-047],100,1.83,,
Cc1ccc[n+]2c(C(=O)Nc3c(F)cccc3F)c([O-])n(C(C)c3ccc(Cl)nc3)c12 (racemic) [Example I-1-275],100,,2.67,
CNC(=O)c1c([O-])n(Cc2cnc(C)cn2)c2cccc[n+]12 [Example I-1-245],90,,0.76,
CC(C)NC(=O)c1c([O-])n(Cc2cnc(Cl)s2)c2cccc[n+]12 [Example I-1-131],100,1.95,,
CCOCC(=O)c1c([O-])n(Cc2cnc(Cl)s2)c2ccc(C)c[n+]12 [Example I-1-175],100,1.78,,
COC(=O)c1c([O-])n(Cc2cnc(Cl)s2)c2c(C)ccc[n+]12 [Example I-1-206],100,,1.46,
CC(c1ccc(Cl)nc1)n1c([O-])c(C(=O)NCC2CC2)[n+]2ccccc12 (stereo not drawn) [Example I-1-250],100,,2.12,
COC(=O)c1c([O-])n(Cc2ccc(Cl)nc2)c2c(C)ccc[n+]12 [Example I-1-160],100,1.39,,
Cc1ccc[n+]2c(C(=O)COC3CCCCC3)c([O-])n(Cc3cnc(Cl)s3)c12 [Example I-1-294],90,,2.77,
CCNC(=O)c1c([O-])n(C(C)c2ccc(Cl)nc2)c2cccc[n+]12 (stereo not drawn) [Example I-1-228],100,,1.72,
CC(C)[S+]([O-])CC(=O)c1c([O-])n(Cc2cnc(Cl)s2)c2cccc[n+]12 (stereo not drawn) [Example I-1-038],100,1.32,,
O=C(COc1ccccn1)c1c([O-])n(Cc2cnc(Cl)s2)c2cccc[n+]12 [Example I-1-088],100,1.32,,
CCNC(=O)c1c([O-])n(Cc2cnc(C)cn2)c2cccc[n+]12 [Example I-1-244],90,,1.07,
